Results: the NIST ThermoML archive (doi:10.1016/j.fluid.2008.01.030)
± gives the expanded uncertainty stated by the source.

Conditions: Liquid, Closed cell (Static) method

## C=CCC [1-butene]
312.57 K
  vapor or sublimation pressure: 454.5 ± 2.3 kPa

## CC(C)C [2-methylpropane]
307.86 K
  vapor or sublimation pressure: 459.8 ± 2.3 kPa

## C=C(C)C [2-methylpropene]
312.6 K
  vapor or sublimation pressure: 465.3 ± 2.3 kPa

## CSC [2-thiapropane]
307.86 K
  vapor or sublimation pressure: 91.7 ± 1.3 kPa
312.58 K
  vapor or sublimation pressure: 107.7 ± 1.3 kPa
312.59 K
  vapor or sublimation pressure: 106.2 ± 1.3 kPa
312.6 K
  vapor or sublimation pressure: 107.4 ± 1.3 kPa
317.32 K
  vapor or sublimation pressure: 126 ± 1.3 kPa
317.35 K
  vapor or sublimation pressure: 126 ± 1.3 kPa

## C/C=C/C [(E)-2-butene]
317.29 K
  vapor or sublimation pressure: 413.8 ± 2.2 kPa

## C/C=C\C [(Z)-2-butene]
312.59 K
  vapor or sublimation pressure: 332.2 ± 1.9 kPa

## CCCC [butane]
317.47 K
  vapor or sublimation pressure: 425.7 ± 2.1 kPa
